Experimental data taken from patent US8637252B2, “Methods and compositions for determining altered susceptibility of HIV-1 to anti-HIV drugs” (Monogram Biosciences, Inc., priority 2011, dated 2014).

What was measured:
[1] = system: HIV-1 patient-derived test vectors with site-directed reverse transcriptase mutations; assay: phenotypic drug resistance test, site-directed reverse transcriptase mutants in patient backgrounds; type: cell-based
Protocol: In addition, using conventional technique, the T369I mutation was introduced into a resistance test vector comprising PR-RT segment derived from patient sample 62, which comprises mutations A62V, Q102K, K103N, K122E, D123N, C162S, D177E, 1178L, M184V, T200A, Q207E, T215Y, P243S, V245Q, A272P and R277K in reverse transcriptase. Among these mutations, K103N correlates with resistance to a number of NNRTIs, including NVP. This patient sample was tested for resistance to an NNRTI using the methods described above.
To further analyze the effects of N348I, T369I, and E399D on NNRTI resistance, an additional series of site directed mutants was constructed in non-wild-type backgrounds. In particular, site-directed mutants comprising the N348I, T369I, or E399D mutation were constructed in POL-containing test vectors obtained from three different patient samples. Results from these experiments are presented as FIG. 11.
To further analyze the effects of N348I, T369I, and E399D on AZT resistance, an additional series of site directed mutants was constructed in non-wild-type backgrounds. In particular, site-directed mutants comprising the N3481, T369I, or E399D mutation were constructed in POL-containing test vectors obtained from two different patient samples.

[2] = system: HIV-1 (PRRT-RH segment of patient sample 62); assay: phenotypic drug resistance test, PRRT-RH amplicon of sample 62; type: cell-based
Source text: Patient-derived segment(s) corresponding to the entire pol gene, encoding HIV protease, reverse transcriptase (including RNAse H), and integrase (hereinafter “POL”), the portion of pol encoding amino acids 1-305 of reverse transcriptase (hereinafter “PR-RT”), the portion of pol encoding amino acids 319-440 of reverse transcriptase (including RNAse H), and integrase (hereinafter “RHIN”), were amplified by the reverse transcription-polymerase chain reaction method (RT-PCR) using viral RNA isolated from viral particles present in the plasma or serum of HIV-infected individuals as described below. The portion of pol encoding protease, amino acids 1-531 of reverse transcriptase (including RNase H) (hereinafter “PRRT-RH”), or the portion of pol encoding protease, reverse transcriptase (including RNAse H) and integrase (hereinafter “PRRT-RHIN”), were assembled from amplicons described above by standard recombinant DNA techniques involving a KpnI restriction site at amino acid 400 or a Pin A1 site at amino acid 315.
Drug resistance tests performed with test vectors were carried out using packaging host and target host cells consisting of the human embryonic kidney cell line 293.
Resistance tests were carried out with the RTV libraries by using viral particles comprising the RTV libraries to infect a host cell in which the expression of the indicator gene is measured. The amount of indicator gene (luciferase) activity detected in infected cells is used as a direct measure of “infectivity,” i.e., the ability of the virus to complete a single round of replication. Thus, drug resistance or sensitivity can be determined by plotting the amount of luciferase activity produced by patient derived viruses in the presence of varying concentrations of the antiviral drug. By identifying the concentration of drug at which luciferase activity is half-maximum, the IC50 of the virus from which patient-derived segment(s) were obtained for the antiretroviral agent can be determined. […]

[3] = E399D mutation, patient 50 background
[4] = E399D mutation, patient 58 or patient 62 background
[5] = N348I and T369I mutations, POL test vectors of patients 50, 58, 62

## CC(C)Nc1cccnc1N1CCN(C(=O)c2cc3cc(NS(C)(=O)=O)ccc3[nH]2)CC1 [DLV, delavirdine]
[1]; [3]
  change in resistance on addition of mutation: increased
[1]; [4]
  change in resistance on addition of mutation: not
[1]; [5]
  change in resistance on addition of mutation: increased resistance
[2]
  Fold Change in IC50, PRRT-RH amplicon: 250.00 fold

## O=C1Nc2ccc(Cl)cc2[C@@](C#CC2CC2)(C(F)(F)F)O1 [EFV, efavirenz]
[1]; [3]
  change in resistance on addition of mutation: increased
[1]; [4]
  change in resistance on addition of mutation: not
[1]; [5]
  change in resistance on addition of mutation: increased resistance
[2]
  Fold Change in IC50, PRRT-RH amplicon: 276.90 fold

## Cc1ccnc2c1NC(=O)c1cccnc1N2C1CC1 [NVP, nevirapine]
[1]; [3]
  change in resistance on addition of mutation: increased
[1]; [4]
  change in resistance on addition of mutation: not
[1]; [5]
  change in resistance on addition of mutation: increased resistance
[1]; T369I introduced into PR-RT segment of patient sample 62 (contains K103N)
  resistance of test vector: enhanced resistance
[2]
  Fold Change in IC50, PRRT-RH amplicon: 400.00 fold
